Laboratory results from paper PMC8991960, “A Bivalent Activatable Fluorescent Probe for Screening and Intravital Imaging of Chemotherapy‐Induced Cancer Cell Death” (Angewandte Chemie (International Ed. in English), 2021).

Test system: breast cancer cells (MMTV-PyMT, MDA-MB231, MCF7)
Assay: Dose-dependency study with Apotracker Red and CellTrace Violet
Assay type: cell-based, mouse and human
Conditions: 1 to 100 µM
Procedure: First, all drugs were tested in the 8 different cell lines to determine the percentages of Apotracker Red‐stained apoptotic cells compared to no treatment (Figure 3 c; Figure S8). […] From this screen, we decided to select 5 drugs with potent pro‐apoptotic response in breast cancer, the most diagnosed cancer worldwide.[25] […] From group 2, we selected cyclophosphamide, tamoxifen, and 5‐fluorouracil as pro‐apoptotic molecules. […] All 5 drugs were tested at multiple concentrations (from 1 to 100 μM) and with incubation times up to 48 h to examine whether drugs could block cell proliferation at late stages (Figures S9–S13).
Figure 4 Apotracker Red detects dose‐dependent chemotherapeutic‐induced apoptosis in mouse and human breast cancer cell lines. Cells were plated with 1 μM CV, treated with increasing concentrations (0, 1, 3, 10, 30 and 100 μM) of selected drugs for 48 h, and stained with Apotracker Red (150 nM) before data acquisition. Drugs: tamoxifen (beige), cisplatin (black), 5‐fluorouracil (green), gemcitabine (pink) and cyclophosphamide (red). Data presented as mean±SEM of 3 independent experiments.
Figure S9. Flow cytometry analysis of cisplatin in different breast cancer cell lines.
Representative flow cytometric plots (from three independent experiments) of MMTV-PyMT cells (a), MDA-MB231 cells (b) and MCF7 cells (c) after treatment with increasing concentrations of cisplatin for 48 h. Cells were stained on day 0 with CellTraceTM Violet (1 µ M) and with Apotracker Red (150 nM) before data acquisition.
(1 picture or pasted object on this page, not shown here)
Edinburgh. Human peripheral blood neutrophils were isolated as previously described.[3] […]
were centrifuged (300 g, 5 min, r.t.), washed once with PBS before addition of 0.05% Trypsin, 0.02% ethylenediaminetetraacetic acid (EDTA) in Hank’s balanced salt solution (HBSS) and incubation at 37°C for 5 min. […] Histograms and mean fluorescence intensities of […]

## N.N.[Cl][Pt][Cl] [cisplatin]
48 h, Apotracker Red 150 nM, 3 independent experiments
  Percentages of Apotracker Red staining, dose-dependency study: highest percentages of Apotracker Red staining across all breast cancer cells
Up to 48 h, CellTrace Violet 1 µM
  Ratios of proliferation blockage, dose-dependency study: highest ratios of proliferation blockage
